Experimental data reported in ChEMBL document CHEMBL1134156, “Design, synthesis and preliminary evaluation of novel 3'-substituted carboxycyclopropylglycines as antagonists at group 2 metabotropic glutamate receptors” (Bioorg Med Chem Lett, 2001).
Values joined by “and” are separate entries in the source; they are usually repeats but may differ in a detail not shown here. Equal entries are not always repeated.

Tests used:
[1] = Hill coefficient was determined
[2] = target: Metabotropic glutamate receptor 2 (Homo sapiens, UniProt Q14416); assay: Antagonistic activity against stimulation of GTP (gamma) 35 S binding by glutamate in membranes from CHO cells expressing human Metabotropic glutamate receptor 2; assay type: cell membranes
[3] = Effect of compound on GluR mediated phosphoinositol metabolisim at conc of 10 uM of mGluR5a; assay type: functional
[4] = target: Metabotropic glutamate receptor 3 (Rattus norvegicus, UniProt P31422); assay: Compound was evaluated for the inhibition of binding of [3H]glutamate against rat recombinant Metabotropic glutamate receptor 3 expressed in HEK293 cells; assay type: cell-based
[5] = Effect of compound on GluR mediated phosphoinositol metabolisim at conc of 50 uM of GluR1b; assay type: functional
[6] = Effect of compound on GluR mediated phosphoinositol metabolisim at conc of 10 uM of GluR1b; assay type: functional
[7] = Effect of compound on GluR mediated phosphoinositol metabolisim at conc of 50 uM of mGluR5a; assay type: functional

Chain of Metabotropic glutamate receptor 2 (Q14416 whole entry): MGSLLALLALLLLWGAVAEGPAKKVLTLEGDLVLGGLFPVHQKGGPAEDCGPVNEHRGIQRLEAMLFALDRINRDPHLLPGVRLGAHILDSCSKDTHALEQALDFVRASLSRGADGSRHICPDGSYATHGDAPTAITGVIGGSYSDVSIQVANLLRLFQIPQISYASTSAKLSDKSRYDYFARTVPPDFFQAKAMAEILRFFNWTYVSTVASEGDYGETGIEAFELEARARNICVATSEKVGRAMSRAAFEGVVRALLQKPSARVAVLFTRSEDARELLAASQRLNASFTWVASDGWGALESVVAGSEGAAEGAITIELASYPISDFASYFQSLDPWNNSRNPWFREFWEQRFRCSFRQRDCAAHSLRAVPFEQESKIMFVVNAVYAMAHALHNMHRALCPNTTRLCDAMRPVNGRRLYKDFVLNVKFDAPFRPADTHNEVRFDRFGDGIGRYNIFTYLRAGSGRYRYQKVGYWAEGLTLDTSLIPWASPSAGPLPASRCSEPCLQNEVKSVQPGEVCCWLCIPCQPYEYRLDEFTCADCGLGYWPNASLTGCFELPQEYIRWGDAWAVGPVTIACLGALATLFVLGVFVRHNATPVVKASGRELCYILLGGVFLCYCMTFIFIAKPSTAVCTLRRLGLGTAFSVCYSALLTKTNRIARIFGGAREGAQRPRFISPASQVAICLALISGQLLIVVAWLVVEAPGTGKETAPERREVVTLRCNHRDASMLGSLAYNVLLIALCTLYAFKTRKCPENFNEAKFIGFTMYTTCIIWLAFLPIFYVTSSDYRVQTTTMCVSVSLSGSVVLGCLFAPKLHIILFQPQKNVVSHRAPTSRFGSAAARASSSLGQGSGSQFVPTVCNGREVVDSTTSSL
Chain of Metabotropic glutamate receptor 3 (P31422 whole entry): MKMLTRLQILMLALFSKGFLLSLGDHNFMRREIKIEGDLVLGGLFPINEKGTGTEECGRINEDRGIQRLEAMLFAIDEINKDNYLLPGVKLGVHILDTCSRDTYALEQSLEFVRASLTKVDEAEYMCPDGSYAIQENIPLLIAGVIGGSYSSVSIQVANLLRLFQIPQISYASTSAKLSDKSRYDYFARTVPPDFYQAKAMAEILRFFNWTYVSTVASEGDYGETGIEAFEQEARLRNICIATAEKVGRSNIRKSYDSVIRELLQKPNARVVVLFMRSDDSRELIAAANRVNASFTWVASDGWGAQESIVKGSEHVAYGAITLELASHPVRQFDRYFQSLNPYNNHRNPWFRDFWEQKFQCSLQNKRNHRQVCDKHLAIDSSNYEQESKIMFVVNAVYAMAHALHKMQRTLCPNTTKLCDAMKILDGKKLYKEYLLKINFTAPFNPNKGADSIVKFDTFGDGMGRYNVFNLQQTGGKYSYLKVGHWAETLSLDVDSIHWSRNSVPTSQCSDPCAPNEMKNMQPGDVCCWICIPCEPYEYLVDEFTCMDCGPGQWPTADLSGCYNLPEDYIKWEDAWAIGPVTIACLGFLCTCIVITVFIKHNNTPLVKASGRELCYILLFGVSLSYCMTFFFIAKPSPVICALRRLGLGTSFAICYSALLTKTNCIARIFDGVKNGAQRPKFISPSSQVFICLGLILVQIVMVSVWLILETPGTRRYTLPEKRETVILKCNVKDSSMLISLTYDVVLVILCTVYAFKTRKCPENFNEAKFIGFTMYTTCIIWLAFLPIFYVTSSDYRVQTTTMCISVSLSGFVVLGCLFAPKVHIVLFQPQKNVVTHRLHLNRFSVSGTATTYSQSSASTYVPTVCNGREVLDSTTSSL

| Hill coefficient [1] | IC50 [2] | Ki [2] | IC50 [4] | SMILES | Activity [3] | Activity [5] | Activity [6] | Activity [7] |
| --- | --- | --- | --- | --- | --- | --- | --- | --- |
| 0.92 and 1.09 | 0.2 µM | 0.085 µM | 0.075 µM | NC(C(=O)O)[C@H]1[C@@H](CCC2c3ccccc3Oc3ccccc32)[C@@H]1C(=O)O (stereo not given in full) | 103% | 111% | 110% | 91% |
| 0.93 and 0.78 | – | 2.7 µM | 1.3 µM | NC(C(=O)O)[C@H]1[C@@H](CC2c3ccccc3Oc3ccccc32)[C@@H]1C(=O)O (stereo not given in full) | 101% | 95% | 131% | 94% |
